Assays:
Conditions in all cases: exposure time 48 h
[1] = test system: Caenorhabditis elegans N2; test: mean nematode size ln(EXT) after 48 h, plate-adjusted (DMSO control set to 6) (ln(EXT), control-adjusted); higher = larger nematodes / less growth inhibition
How it was run: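 Synchronised C. elegans N2 L1 larvae were grown for 48 h at 20°C in K-medium containing killed OP50, 1% DMSO and 0.5–200 µM chemical, at 50 per well and 4–6 wells per treatment. The Biosort recorded extinction for each worm, and a growth model removed debris. Worm size was obtained by natural-logging these values and averaging them per well. For plate adjustment, the vehicle control mean was subtracted and 6 was added.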

[2] = test system: Caenorhabditis elegans N2; test: lowest effective concentration for larval growth inhibition (size below effect threshold); higher = less potent
How it was run: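 C. elegans N2 L1 larvae (50 per 96-well) were grown 48 h at 20°C in K-medium with killed bacteria, 1% DMSO and 0.5, 1, 5, 10, 50, 100 or 200 µM chemical. The Biosort measured per-worm extinction as size, and these were log-transformed into well means. The lowest effective concentration is the first dose where the plate-adjusted mean size drops under the 5.665 threshold and stays under it at higher doses.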

[3] = test system: Caenorhabditis elegans N2; test: AC50 for larval growth inhibition (Hill fit); higher = less potent
How it was run: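 Synchronised C. elegans N2 L1 larvae, 50 per well in 96-well plates, were grown at 20°C for 48 h in K-medium with killed OP50, 1% DMSO and 0.5–200 µM chemical. Worm size was read on a COPAS Biosort as extinction, log-transformed and averaged per well, and only wells holding at least 10 worms were kept. AC50 was obtained by a constrained Hill fit using weighted genetic-algorithm regression, with out-of-range values censored.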

Compound	mean nematode size ln(EXT) (ln) ([1]; 0.5 µM)	mean nematode size ln(EXT) (ln) ([1]; 1 µM)	mean nematode size ln(EXT) (ln) ([1]; 5 µM)	mean nematode size ln(EXT) (ln) ([1]; 10 µM)	mean nematode size ln(EXT) (ln) ([1]; 50 µM)	mean nematode size ln(EXT) (ln) ([1]; 100 µM)	mean nematode size ln(EXT) (ln) ([1]; 200 µM)	lowest effective concentration [2]	AC50 for larval growth inhibition [3]
CC(C)(C)CC(C)(C)c1ccc(O)c(-n2nc3ccccc3n2)c1 [Octrizole]	5.46	5.58	5.57	5.58	5.58	5.55	5.44	≤ 0.5 µM	> 200 µM
CCCN(CCOc1c(Cl)cc(Cl)cc1Cl)C(=O)n1ccnc1 [Prochloraz]	6.11	6.19	6.19	6.29	5.98	5.98	3.41	200 µM	153 µM
COC(=O)c1ccccc1O [Methyl salicylate]	5.89	5.86	5.82	5.75	5.81	5.78	5.26	200 µM	> 200 µM
CCCOc1sc(C(=O)N2CCC(c3cc(CN)ccc3F)CC2)c(C)c1Br	5.68	5.67	5.54	4.86	3.73	3.92	–	5 µM	9.86 µM
CNc1cnn(-c2cccc(C(F)(F)F)c2)c(=O)c1Cl [Norflurazon]	5.99	5.96	6.11	6.19	6.05	5.79	5.15	200 µM	104 µM
CC(=O)OC/C=C(\C)CCC=C(C)C [Geranyl acetate]	5.79	5.76	5.73	5.81	5.7	5.74	5.61	200 µM	> 200 µM
CN(C)[C@@H]1C(=O)C(C(N)=O)=C(O)[C@@]2(O)C(=O)C3=C(O)c4c(O)cccc4[C@@](C)(O)[C@H]3[C@H](O)[C@@H]12 [Oxytetracycline dihydrate]	5.86	6.02	6.01	5.95	5.87	5.83	5.46	200 µM	> 200 µM
Cc1cnc(C2=NC(=O)C(C)(C(C)C)N2)c(C(=O)O)c1 (stereo not drawn) [Imazapic]	5.98	6.06	6.04	6.23	5.45	4.31	3.54	50 µM	79.6 µM
O=C(OC[C@H]1O[C@@H](OC(=O)c2cc(O)c(O)c(OC(=O)c3cc(O)c(O)c(O)c3)c2)[C@H](OC(=O)c2cc(O)c(O)c(OC(=O)c3cc(O)c(O)c(O)c3)c2)[C@@H](OC(=O)c2cc(O)c(O)c(OC(=O)c3cc(O)c(O)c(O)c3)c2)[C@@H]1OC(=O)c1cc(O)c(O)c(OC(=O)c2cc(O)c(O)c(O)c2)c1)c1cc(O)c(O)c(OC(=O)c2cc(O)c(O)c(O)c2)c1 [Tannic acid]	5.95	5.98	5.96	5.92	5.86	5.68	5.34	200 µM	> 200 µM
Nc1ccc(Cl)cc1N [4-Chloro-o-phenylenediamine]	5.89	5.85	5.91	5.85	5.36	5.03	5.01	50 µM	39 µM
Cc1ccccc1CO[C@@H]1C[C@@]2(C(C)C)CCC1(C)O2 [Cinmethylin]	5.94	5.99	6	6.07	5.92	5.77	4.9	200 µM	> 200 µM

Reference: the supplement of paper PMC4858399
